Source: ChEMBL document CHEMBL1146654, “3-(7-Azaindolyl)-4-arylmaleimides as potent, selective inhibitors of glycogen synthase kinase-3” (Bioorg Med Chem Lett, 2004)

How the values were obtained:
[1] = target: Mitogen-activated protein kinase 8 (Homo sapiens) (UniProt P45983); experiment: Inhibition of c-Jun N-terminal kinase 1-alpha 1; design: scale not given: the % may be the effect or the level left
[2] = target: Mitogen-activated protein kinase 11 (Homo sapiens) (UniProt Q15759); experiment: Inhibition of Stress activated protein kinase 2b; design: scale not given: the % may be the effect or the level left
Sequence of Mitogen-activated protein kinase 11 (Homo sapiens) (Q15759 whole entry): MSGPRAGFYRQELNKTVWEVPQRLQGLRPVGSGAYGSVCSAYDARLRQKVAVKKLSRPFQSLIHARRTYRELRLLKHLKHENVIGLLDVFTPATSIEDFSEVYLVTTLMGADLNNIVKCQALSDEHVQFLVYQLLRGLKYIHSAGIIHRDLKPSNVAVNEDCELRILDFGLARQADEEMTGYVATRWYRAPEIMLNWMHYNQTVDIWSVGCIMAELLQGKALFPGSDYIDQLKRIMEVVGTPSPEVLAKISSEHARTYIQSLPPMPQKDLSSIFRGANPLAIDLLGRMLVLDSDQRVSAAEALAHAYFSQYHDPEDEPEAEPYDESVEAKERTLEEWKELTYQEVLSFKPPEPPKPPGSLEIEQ

[3] = target: Tyrosine-protein kinase Fyn (Homo sapiens) (UniProt P06241); experiment: Inhibition of Fyn protein kinase; design: scale not given: the % may be the effect or the level left
Sequence of Tyrosine-protein kinase Fyn (Homo sapiens) (P06241 2-537 limits assumed): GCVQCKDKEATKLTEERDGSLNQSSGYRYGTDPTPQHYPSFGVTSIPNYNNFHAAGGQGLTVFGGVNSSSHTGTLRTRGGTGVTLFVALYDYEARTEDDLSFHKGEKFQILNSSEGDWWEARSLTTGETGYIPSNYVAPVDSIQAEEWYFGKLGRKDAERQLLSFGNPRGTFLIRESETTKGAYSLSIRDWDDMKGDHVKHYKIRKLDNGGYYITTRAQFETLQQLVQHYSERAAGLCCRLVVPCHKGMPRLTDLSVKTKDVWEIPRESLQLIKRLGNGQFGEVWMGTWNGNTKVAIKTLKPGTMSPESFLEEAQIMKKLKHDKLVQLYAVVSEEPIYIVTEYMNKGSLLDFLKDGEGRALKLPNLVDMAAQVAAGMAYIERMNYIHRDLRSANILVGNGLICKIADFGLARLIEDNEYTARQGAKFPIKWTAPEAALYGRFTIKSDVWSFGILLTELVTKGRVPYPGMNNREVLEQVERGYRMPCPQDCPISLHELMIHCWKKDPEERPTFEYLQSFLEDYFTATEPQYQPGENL

[4] = target: Cyclin-dependent kinase 7/ cyclin H (Homo sapiens) (UniProt P51946+P50613); experiment: Inhibition of Cyclin-dependent kinase 7-cyclin H; type: protein-complex assay; design: scale not given: the % may be the effect or the level left
[5] = target: Cyclin-dependent kinase 2/cyclin A (Homo sapiens, UniProt P24941); experiment: Inhibition of Cyclin-dependent kinase 2-cyclin A; type: protein-complex assay
[6] = target: T1, Tyrosine-protein kinase ZAP-70 (Homo sapiens) (UniProt P43403); experiment: Inhibition of Zeta-chain (TCR) associated protein kinase 70 kDa (ZAP70); design: scale not given: the % may be the effect or the level left
T1 sequence (whole entry): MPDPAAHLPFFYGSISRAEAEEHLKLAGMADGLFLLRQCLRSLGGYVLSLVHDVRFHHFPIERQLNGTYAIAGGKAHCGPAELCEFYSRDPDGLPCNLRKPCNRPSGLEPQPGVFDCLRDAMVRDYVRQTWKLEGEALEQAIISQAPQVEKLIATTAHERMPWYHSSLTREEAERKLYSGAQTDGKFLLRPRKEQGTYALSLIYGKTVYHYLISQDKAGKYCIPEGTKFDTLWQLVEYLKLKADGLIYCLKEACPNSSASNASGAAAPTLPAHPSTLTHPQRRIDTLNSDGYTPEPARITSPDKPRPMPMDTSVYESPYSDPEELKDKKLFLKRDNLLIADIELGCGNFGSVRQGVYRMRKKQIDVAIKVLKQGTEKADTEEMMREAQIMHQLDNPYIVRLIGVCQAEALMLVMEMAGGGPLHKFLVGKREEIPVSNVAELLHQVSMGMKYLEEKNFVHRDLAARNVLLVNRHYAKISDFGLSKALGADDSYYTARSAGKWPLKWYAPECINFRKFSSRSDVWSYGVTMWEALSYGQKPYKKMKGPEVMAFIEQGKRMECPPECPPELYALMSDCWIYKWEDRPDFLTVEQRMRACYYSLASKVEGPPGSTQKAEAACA

[7] = target: Mitogen-activated protein kinase 10 (Rattus norvegicus) (UniProt P49187); experiment: Inhibition of c-Jun N-terminal kinase 3; design: scale not given: the % may be the effect or the level left
Sequence of Mitogen-activated protein kinase 10 (Rattus norvegicus) (P49187 whole entry, looked up): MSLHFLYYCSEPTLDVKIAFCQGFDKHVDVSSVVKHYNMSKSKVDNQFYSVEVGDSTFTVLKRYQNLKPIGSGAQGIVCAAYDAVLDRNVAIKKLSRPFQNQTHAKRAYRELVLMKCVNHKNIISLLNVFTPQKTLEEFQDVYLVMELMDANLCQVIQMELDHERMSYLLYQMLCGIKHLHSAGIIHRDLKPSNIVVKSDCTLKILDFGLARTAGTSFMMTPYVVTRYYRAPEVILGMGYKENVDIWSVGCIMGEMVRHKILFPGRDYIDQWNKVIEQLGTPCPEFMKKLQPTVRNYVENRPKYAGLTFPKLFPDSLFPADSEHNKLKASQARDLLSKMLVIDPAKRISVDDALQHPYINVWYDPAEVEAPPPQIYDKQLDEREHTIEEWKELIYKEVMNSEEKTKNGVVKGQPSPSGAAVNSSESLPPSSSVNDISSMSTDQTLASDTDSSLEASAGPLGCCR

[8] = target: RAC-alpha serine/threonine-protein kinase (Homo sapiens) (UniProt P31749); experiment: Inhibition of PKBalpha; design: scale not given: the % may be the effect or the level left
Sequence of RAC-alpha serine/threonine-protein kinase (Homo sapiens) (P31749 whole entry): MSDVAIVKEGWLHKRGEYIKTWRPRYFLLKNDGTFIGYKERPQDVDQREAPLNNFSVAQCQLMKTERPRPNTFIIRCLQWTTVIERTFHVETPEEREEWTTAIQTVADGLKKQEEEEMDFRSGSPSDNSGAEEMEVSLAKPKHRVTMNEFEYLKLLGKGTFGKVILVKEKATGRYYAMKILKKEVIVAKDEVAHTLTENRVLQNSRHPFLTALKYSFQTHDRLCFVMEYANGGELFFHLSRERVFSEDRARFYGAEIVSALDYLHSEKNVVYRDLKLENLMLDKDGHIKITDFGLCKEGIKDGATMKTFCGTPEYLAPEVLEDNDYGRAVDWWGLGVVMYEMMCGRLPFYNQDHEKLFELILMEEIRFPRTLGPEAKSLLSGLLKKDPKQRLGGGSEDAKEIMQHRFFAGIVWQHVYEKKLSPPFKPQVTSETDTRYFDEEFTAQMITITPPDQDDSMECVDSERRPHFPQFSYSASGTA

[9] = target: Insulin-like growth factor 1 receptor (Homo sapiens) (UniProt P08069); experiment: Inhibition of insulin-like growth factor I receptor; design: scale not given: the % may be the effect or the level left
Sequence of Insulin-like growth factor 1 receptor (Homo sapiens) (P08069 31-736 limits assumed): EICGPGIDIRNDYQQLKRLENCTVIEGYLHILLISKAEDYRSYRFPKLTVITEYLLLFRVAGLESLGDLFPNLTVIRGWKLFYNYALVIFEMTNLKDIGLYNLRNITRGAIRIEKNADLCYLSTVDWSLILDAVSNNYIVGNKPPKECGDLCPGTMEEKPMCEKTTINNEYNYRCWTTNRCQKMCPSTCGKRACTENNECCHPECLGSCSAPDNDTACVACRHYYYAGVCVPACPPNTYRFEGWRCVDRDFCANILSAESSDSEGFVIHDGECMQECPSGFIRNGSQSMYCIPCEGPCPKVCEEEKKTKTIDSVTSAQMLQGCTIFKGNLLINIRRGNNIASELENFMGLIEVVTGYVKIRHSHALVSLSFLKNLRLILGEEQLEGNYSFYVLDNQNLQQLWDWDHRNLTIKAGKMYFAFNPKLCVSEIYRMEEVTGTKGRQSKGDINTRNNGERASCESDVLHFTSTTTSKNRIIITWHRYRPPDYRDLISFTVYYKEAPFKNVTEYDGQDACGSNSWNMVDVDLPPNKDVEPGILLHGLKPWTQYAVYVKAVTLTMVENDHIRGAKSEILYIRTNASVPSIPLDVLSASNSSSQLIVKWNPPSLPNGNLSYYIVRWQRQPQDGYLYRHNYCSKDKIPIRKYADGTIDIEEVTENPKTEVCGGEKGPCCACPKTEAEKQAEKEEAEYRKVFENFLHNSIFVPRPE
Sequence of Insulin-like growth factor 1 receptor (Homo sapiens) (P08069 741-1367 limits assumed): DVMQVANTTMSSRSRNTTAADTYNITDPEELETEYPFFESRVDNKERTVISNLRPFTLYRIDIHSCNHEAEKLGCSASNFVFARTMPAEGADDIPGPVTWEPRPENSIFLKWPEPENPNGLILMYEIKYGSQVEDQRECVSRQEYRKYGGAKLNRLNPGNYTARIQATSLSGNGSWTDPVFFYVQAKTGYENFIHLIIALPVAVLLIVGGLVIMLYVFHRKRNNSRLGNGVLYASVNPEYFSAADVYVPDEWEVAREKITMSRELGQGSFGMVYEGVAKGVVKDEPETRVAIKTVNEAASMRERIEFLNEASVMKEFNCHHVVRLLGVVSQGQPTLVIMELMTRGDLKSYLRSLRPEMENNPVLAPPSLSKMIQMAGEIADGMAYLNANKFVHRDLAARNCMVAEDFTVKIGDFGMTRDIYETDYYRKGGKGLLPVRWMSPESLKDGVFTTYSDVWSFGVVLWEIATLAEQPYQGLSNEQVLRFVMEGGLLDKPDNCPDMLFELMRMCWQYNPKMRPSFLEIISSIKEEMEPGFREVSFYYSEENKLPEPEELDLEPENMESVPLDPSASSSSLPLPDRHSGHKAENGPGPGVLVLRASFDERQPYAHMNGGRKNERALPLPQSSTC

[10] = target: T2, Serine/threonine-protein kinase Sgk1 (Homo sapiens) (UniProt O00141); experiment: Inhibition of Serum/glucocorticoid regulated kinase; design: scale not given: the % may be the effect or the level left
T2 sequence (whole entry): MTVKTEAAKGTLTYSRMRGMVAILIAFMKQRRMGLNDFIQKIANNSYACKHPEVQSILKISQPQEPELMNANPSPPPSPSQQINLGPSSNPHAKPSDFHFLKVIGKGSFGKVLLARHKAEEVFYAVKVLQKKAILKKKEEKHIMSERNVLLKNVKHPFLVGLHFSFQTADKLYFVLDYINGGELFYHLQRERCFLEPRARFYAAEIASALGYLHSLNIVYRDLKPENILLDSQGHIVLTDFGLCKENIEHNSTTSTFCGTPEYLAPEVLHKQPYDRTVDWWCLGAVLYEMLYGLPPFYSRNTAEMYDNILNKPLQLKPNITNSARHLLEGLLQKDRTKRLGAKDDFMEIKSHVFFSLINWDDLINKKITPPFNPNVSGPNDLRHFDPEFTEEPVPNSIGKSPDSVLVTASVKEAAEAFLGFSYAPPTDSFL

[11] = target: T3, Inhibitor of nuclear factor kappa-B kinase subunit beta (Homo sapiens) (UniProt O14920); experiment: Inhibition of I-kappa-B-kinase beta; design: scale not given: the % may be the effect or the level left
T3 sequence (whole entry): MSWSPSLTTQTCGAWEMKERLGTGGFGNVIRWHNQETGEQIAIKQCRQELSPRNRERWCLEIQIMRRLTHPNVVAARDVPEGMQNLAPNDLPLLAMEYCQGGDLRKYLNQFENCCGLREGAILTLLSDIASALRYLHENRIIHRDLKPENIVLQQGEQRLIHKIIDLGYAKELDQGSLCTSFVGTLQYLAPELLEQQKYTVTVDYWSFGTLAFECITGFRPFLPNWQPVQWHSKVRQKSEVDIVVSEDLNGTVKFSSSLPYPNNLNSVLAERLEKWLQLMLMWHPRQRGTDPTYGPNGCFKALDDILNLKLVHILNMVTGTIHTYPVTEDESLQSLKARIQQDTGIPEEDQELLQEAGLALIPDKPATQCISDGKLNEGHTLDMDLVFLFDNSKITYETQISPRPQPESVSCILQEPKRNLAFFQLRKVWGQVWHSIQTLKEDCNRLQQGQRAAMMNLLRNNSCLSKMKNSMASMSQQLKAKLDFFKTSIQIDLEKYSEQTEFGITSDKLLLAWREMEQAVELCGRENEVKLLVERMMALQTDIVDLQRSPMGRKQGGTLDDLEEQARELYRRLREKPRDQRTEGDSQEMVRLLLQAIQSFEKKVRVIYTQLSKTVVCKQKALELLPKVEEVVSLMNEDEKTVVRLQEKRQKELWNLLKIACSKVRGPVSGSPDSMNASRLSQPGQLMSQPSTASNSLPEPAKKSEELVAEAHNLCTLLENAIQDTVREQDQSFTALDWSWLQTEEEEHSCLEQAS

[12] = target: Protein kinase C gamma type (Homo sapiens, UniProt P05129); experiment: Inhibition of PKCgamma; design: scale not given: the % may be the effect or the level left
[13] = target: Cyclin-dependent kinase 2/cyclin E (Homo sapiens) (UniProt P24864+P24941+O96020); experiment: Inhibition of CDK2/cyclin E; type: protein-complex assay; design: scale not given: the % may be the effect or the level left
[14] = target: Tyrosine-protein kinase Lyn (Mus musculus) (UniProt P25911); experiment: Inhibition of Protein tyrosine kinase Lyn; design: scale not given: the % may be the effect or the level left
Sequence of Tyrosine-protein kinase Lyn (Mus musculus) (P25911 whole entry): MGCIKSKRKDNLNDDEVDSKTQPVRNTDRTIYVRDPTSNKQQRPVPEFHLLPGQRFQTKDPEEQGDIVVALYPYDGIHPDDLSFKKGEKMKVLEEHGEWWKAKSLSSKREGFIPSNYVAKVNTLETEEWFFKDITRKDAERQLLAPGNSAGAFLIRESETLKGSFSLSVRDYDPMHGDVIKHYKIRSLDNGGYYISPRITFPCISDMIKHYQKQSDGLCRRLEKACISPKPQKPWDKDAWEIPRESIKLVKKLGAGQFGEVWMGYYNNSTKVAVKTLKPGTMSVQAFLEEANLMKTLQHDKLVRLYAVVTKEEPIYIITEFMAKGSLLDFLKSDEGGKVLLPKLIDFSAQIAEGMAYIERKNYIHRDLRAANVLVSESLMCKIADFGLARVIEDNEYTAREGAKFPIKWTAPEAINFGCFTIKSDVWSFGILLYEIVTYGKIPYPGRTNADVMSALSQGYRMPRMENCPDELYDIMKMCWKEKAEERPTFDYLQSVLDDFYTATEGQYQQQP

[15] = target: CDK6/cyclin D3 (Homo sapiens) (UniProt P30281+Q00534); experiment: Inhibition of Cyclin-dependent kinase 6-cyclin D3; type: protein-complex assay; design: scale not given: the % may be the effect or the level left

Sequence of Mitogen-activated protein kinase 8 (Homo sapiens) (P45983 whole entry): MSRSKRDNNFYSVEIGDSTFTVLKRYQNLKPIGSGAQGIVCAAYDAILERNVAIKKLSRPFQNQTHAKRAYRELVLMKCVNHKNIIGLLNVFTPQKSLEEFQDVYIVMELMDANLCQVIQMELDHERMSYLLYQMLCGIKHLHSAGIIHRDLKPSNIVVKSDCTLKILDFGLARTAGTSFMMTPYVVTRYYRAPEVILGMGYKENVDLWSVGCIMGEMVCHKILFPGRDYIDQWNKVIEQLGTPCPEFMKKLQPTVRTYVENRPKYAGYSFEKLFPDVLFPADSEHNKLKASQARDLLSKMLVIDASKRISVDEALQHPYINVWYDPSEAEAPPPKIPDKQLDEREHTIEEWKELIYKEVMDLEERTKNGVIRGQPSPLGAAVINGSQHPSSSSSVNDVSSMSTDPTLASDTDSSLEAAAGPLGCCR

| Activity [1] | Activity [2] | Activity [3] | Activity [4] | IC50 [5] | Activity [6] | Activity [7] | Activity [8] | Activity [9] | Activity [10] | Activity [11] | Activity [12] | Activity [13] | Activity [14] | Activity [15] | SMILES |
| --- | --- | --- | --- | --- | --- | --- | --- | --- | --- | --- | --- | --- | --- | --- | --- |
| 75% | 102% | 94% | 47% | 0.43 µM | 100% | 52% | 93% | 80% | 98% | 81% | 59% | 11% | 81% | 50% | COCCCn1cc(C2=C(c3ccccc3O)C(=O)NC2=O)c2cccnc21 |
| 81% | 106% | 63% | 60% | 0.068 µM | 112% | 68% | 103% | 86% | 105% | 91% | 76% | 3% | 20% | 24% | COc1ccccc1C1=C(c2cn(CCCNC(=O)OC(C)(C)C)c3ncccc23)C(=O)NC1=O |
| 80% | 94% | 89% | 59% | 2.8 µM | 91% | 76% | 64% | 78% | 87% | 83% | 72% | 30% | 85% | 59% | O=C1NC(=O)C(c2cn(CCCO)c3ncccc23)=C1c1ncc(C(F)(F)F)cc1Cl |
